{"source": "patent US12433875B2", "about": "“(R)-4-(1-(6-(4-(trifluoromethyl)benzyl)-6-azaspiro[2.5]octane-5-carboxamido)-cyclopropyl) benzoic acid or its salt also in polymorphic form a for use in the prevention of heterotopic ossification” (ROTTAPHARM BIOTECH S.R.L., priority 2019, dated 2025)", "key": {"[1]": {"test_system": "Sprague Dawley male rats (AIA model)", "experiment": "Adjuvant Induced Arthritis (AIA) in rats, histology of pathological bone apposition", "format": "in vivo, rat", "conditions": "10 mg/kg orally once a day for 15 days, FIG. 10", "excerpt": "Adjuvant Induced Arthritis (AIA) in rats is a widely studied and accepted animal model of inflammatory arthritis driven by Tcells. In experimental autoimmune diseases, CFA mediated activation of the innate immune compartment is important not only by regulating the early induction phase, but also by providing a surplus of effector and regulator cells in the late phase. Also in this model it was possible to appreciate a relevant pathological apposition of new bone. This paradigm was used as a third model to further confirm the effect of the compound of the invention as an effective inhibitor of pathological heterotopic ossification.\nSprague Dawley male rats (Charles River) were immunized by intradermal injection at the base of the tail with 150 μl of complete Freund's adjuvant (CFA) containing 10 mg/ml of heat killed Mycobacterium tuberculosis (Chondrex code 7027) or with incomplete Freund's adjuvant (IFA) (sham n=10). Ten days after immunization arthritis developed in all animals, but not in the sham-group; edema and clinical scores were assessed and the animals were then randomized and assigned to treatment groups (n=9-12) as follows: vehicle, the compound of the invention 10 mg/kg or 30 mg/kg. The compound of the invention was administered orally once a day for 15 days. […]"}, "[2]": {"test_system": "PBMC's from healthy volunteers (Th17 IL-17F memory cells)", "experiment": "Human T-helper (Th) cell polarization, flow cytometry", "format": "cell-based", "conditions": "100 nM; rIL-2 and rIL-21 5 ng/ml, anti-CD3 and anti-CD28 1.5 ng/ml, PGE2 30 nM, 48 hour; FIG. 12", "experimental": "FIG. 12a is the spydergram illustrating the preferential inhibitory effect of the form A of the sodium salt of (R)-4-(1-(6-(4-(trifluoromethyl)benzyl)-6-azaspiro[2.5]octane-5-carboxamido)cyclopropyl)benzoic acid on Th17 polarization towards Th17 IL-17F memory cells induced by a stimulation with rIL-2 and rIL-21 (both at 5 ng/ml) in combination with anti-CD3 and anti-CD28 (both at 1.5 ng/ml) co-stimulated with PGE2 (30 nM) over a 48 hour. Stimulated cells were normalized to 100%.\nFIG. 12b represents the percent of Th17 IL-17F memory cell stimulation (mean±sem) of cells taken by individual donors vs. their baseline levels in the absence or in the presence of 100 nM form A of the sodium salt of (R)-4-(1-(6-(4-(trifluoromethyl)benzyl)-6-azaspiro[2.5]octane-5-carboxamido)cyclopropyl)benzoic acid.\nIn this model the ability of the Form A of the sodium salt of (R)-4-(1-(6-(4-(trifluoromethyl)benzyl)-6-azaspiro[2.5]octane-5-carboxamido)cyclopropyl)benzoic acid to interacts with the immunological features able to influence pathological bone formation was studied. Specifically, the effect of the Form A of the sodium salt of (R)-4-(1-(6-(4-(trifluoromethyl)benzyl)-6-azaspiro[2.5]octane-5-carboxamido)cyclopropyl)benzoic acid on the Th-cell polarization in human Tcells stimulated by inflammatory agents was studied. […]"}}}
{"smiles": "O=C([O-])c1ccc(C2(NC(=O)[C@H]3CC4(CCN3Cc3ccc(C(F)(F)F)cc3)CC4)CC2)cc1.[Na+]", "note": "[Form A, sodium (R)-4-(1-(6-(4-(trifluoromethyl)benzyl)-6-azaspiro[2.5]octane-5-carboxamido)cyclopropyl)benzoate]", "values": [{"measurement": "pathological bone apposition (histology)", "setting": "[1]", "value": "completely abrogated the pathological bone apposition in almost all animals"}, {"measurement": "polarization of Th17 cells towards IL-17F producing population (Th17 IL-17F memory cells)", "setting": "[2]", "value": "reduce significantly the polarization of Th17 cells towards a population capable to produce IL-17F"}]}
